Experimental data: PubChem BioAssay (NCI)
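In this assay, cells in 96-well plates receive the compound at five concentrations for 48 hours. Endpoints are linearly interpolated between the surrounding concentrations. GI50 = concentration required for 50% inhibition of growth. TGI is the concentration that stops growth completely.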

Columns and labels:
Assay in all cases: NCI-60 cell line screen, 48 h
OVCAR-8 ovarian = test system: OVCAR-8 ovarian
K-562 leukemia = test system: K-562 leukemia
TK-10 renal = test system: TK-10 renal
U251 CNS = test system: U251 CNS
M14 melanoma = test system: M14 melanoma
RPMI-8226 leukemia = test system: RPMI-8226 leukemia
PC-3 prostate = test system: PC-3 prostate
786-0 renal = test system: 786-0 renal
NCI-H522 lung = test system: NCI-H522 lung
MOLT-4 leukemia = test system: MOLT-4 leukemia
HCC-2998 colon = test system: HCC-2998 colon
ACHN renal = test system: ACHN renal
HS 578T breast = test system: HS 578T breast
UACC-62 melanoma = test system: UACC-62 melanoma
NCI-H226 lung = test system: NCI-H226 lung
SK-MEL-28 melanoma = test system: SK-MEL-28 melanoma
A549 NSCLC = test system: A549 NSCLC
MDA-MB-435 = test system: MDA-MB-435
SK-OV-3 ovarian = test system: SK-OV-3 ovarian
A498 renal = test system: A498 renal
MALME-3M melanoma = test system: MALME-3M melanoma
RXF 393 renal = test system: RXF 393 renal
HOP-62 NSCLC = test system: HOP-62 NSCLC
HT29 colon = test system: HT29 colon
SF-539 CNS = test system: SF-539 CNS
SK-MEL-2 melanoma = test system: SK-MEL-2 melanoma
HL-60(TB) leukemia = test system: HL-60(TB) leukemia
OVCAR-3 ovarian = test system: OVCAR-3 ovarian
NCI-H23 lung = test system: NCI-H23 lung
SNB-19 CNS = test system: SNB-19 CNS
SR leukemia = test system: SR leukemia
BT-549 breast = test system: BT-549 breast
UACC-257 melanoma = test system: UACC-257 melanoma
SN12C renal = test system: SN12C renal
DU-145 prostate = test system: DU-145 prostate
SK-MEL-5 melanoma = test system: SK-MEL-5 melanoma
IGROV1 ovarian = test system: IGROV1 ovarian
LOX IMVI melanoma = test system: LOX IMVI melanoma
OVCAR-5 ovarian = test system: OVCAR-5 ovarian
SNB-75 CNS = test system: SNB-75 CNS
OVCAR-4 ovarian = test system: OVCAR-4 ovarian
EKVX NSCLC = test system: EKVX NSCLC
KM12 colon = test system: KM12 colon
UO-31 renal = test system: UO-31 renal
HCT-15 colon = test system: HCT-15 colon
SF-295 CNS = test system: SF-295 CNS
SW-620 colon = test system: SW-620 colon
MCF7 breast = test system: MCF7 breast
NCI-H460 lung = test system: NCI-H460 lung
MDA-MB-231 breast = test system: MDA-MB-231 breast
CAKI-1 renal = test system: CAKI-1 renal
T-47D breast = test system: T-47D breast
COLO 205 colon = test system: COLO 205 colon
HCT-116 colon = test system: HCT-116 colon
NCI/ADR-RES ovarian = test system: NCI/ADR-RES ovarian
CCRF-CEM leukemia = test system: CCRF-CEM leukemia

For CC(=O)[O][Sn]([CH2]c1ccccc1)([CH2]c1ccccc1)[CH2]c1ccccc1, the GI50 (OVCAR-8 ovarian) was > 10 µM, the TGI (OVCAR-8 ovarian) was > 10 µM and the GI50 (K-562 leukemia) was 3.4 µM. The TGI (K-562 leukemia) was > 4.64 µM, the GI50 (TK-10 renal) was > 3.8 µM and the TGI (TK-10 renal) was > 5.43 µM. The GI50 (U251 CNS) was > 10 µM, the TGI (U251 CNS) was > 10 µM and the GI50 (M14 melanoma) was > 8.37 µM. The TGI (M14 melanoma) was > 10 µM, the GI50 (RPMI-8226 leukemia) was 3.65 µM and the TGI (RPMI-8226 leukemia) was > 4.64 µM. For the same molecule, the GI50 (PC-3 prostate) was > 7.52 µM, the TGI (PC-3 prostate) was > 10 µM and the GI50 (786-0 renal) was > 7.05 µM. For the same molecule, the TGI (786-0 renal) was > 10 µM, the GI50 (NCI-H522 lung) was > 3.86 µM and the TGI (NCI-H522 lung) was > 7.23 µM. The GI50 (MOLT-4 leukemia) was > 10 µM, the TGI (MOLT-4 leukemia) was > 10 µM and the GI50 (HCC-2998 colon) was > 6.73 µM. For the same molecule, the TGI (HCC-2998 colon) was > 10 µM, the GI50 (ACHN renal) was > 10 µM and the TGI (ACHN renal) was > 10 µM. For the same molecule, the GI50 (HS 578T breast) was > 6.39 µM, the TGI (HS 578T breast) was > 9.44 µM and the GI50 (UACC-62 melanoma) was > 10 µM. The TGI (UACC-62 melanoma) was > 10 µM, the GI50 (NCI-H226 lung) was > 10 µM and the TGI (NCI-H226 lung) was > 10 µM. For the same molecule, the GI50 (SK-MEL-28 melanoma) was > 5.6 µM, the TGI (SK-MEL-28 melanoma) was > 6.79 µM and the GI50 (A549 NSCLC) was > 8.99 µM. For the same molecule, the TGI (A549 NSCLC) was > 10 µM, the GI50 (MDA-MB-435) was > 7 µM and the TGI (MDA-MB-435) was > 10 µM. For the same molecule, the GI50 (SK-OV-3 ovarian) was > 10 µM, the TGI (SK-OV-3 ovarian) was > 10 µM and the GI50 (A498 renal) was > 4.95 µM. For the same molecule, the TGI (A498 renal) was 9.94 µM, the GI50 (MALME-3M melanoma) was > 4.38 µM and the TGI (MALME-3M melanoma) was > 6.05 µM. For the same molecule, the GI50 (RXF 393 renal) was 3.98 µM, the TGI (RXF 393 renal) was > 4.64 µM and the GI50 (HOP-62 NSCLC) was > 5.55 µM. The TGI (HOP-62 NSCLC) was > 6.75 µM, the GI50 (HT29 colon) was 4.72 µM and the TGI (HT29 colon) was > 8.87 µM. The GI50 (SF-539 CNS) was > 5.42 µM, the TGI (SF-539 CNS) was > 6.76 µM and the GI50 (SK-MEL-2 melanoma) was > 8.34 µM. The TGI (SK-MEL-2 melanoma) was > 10 µM, the GI50 (HL-60(TB) leukemia) was > 5.79 µM and the TGI (HL-60(TB) leukemia) was > 7.61 µM. The GI50 (OVCAR-3 ovarian) was > 6.14 µM, the TGI (OVCAR-3 ovarian) was > 10 µM and the GI50 (NCI-H23 lung) was > 5.98 µM. The TGI (NCI-H23 lung) was > 7.83 µM, the GI50 (SNB-19 CNS) was > 10 µM and the TGI (SNB-19 CNS) was > 10 µM. The GI50 (SR leukemia) was 3.76 µM, the TGI (SR leukemia) was > 4.64 µM and the GI50 (BT-549 breast) was > 10 µM. For the same molecule, the TGI (BT-549 breast) was > 10 µM, the GI50 (UACC-257 melanoma) was > 10 µM and the TGI (UACC-257 melanoma) was > 10 µM. The GI50 (SN12C renal) was > 10 µM, the TGI (SN12C renal) was > 10 µM and the GI50 (DU-145 prostate) was > 10 µM. The TGI (DU-145 prostate) was > 10 µM, the GI50 (SK-MEL-5 melanoma) was 4.15 µM and the TGI (SK-MEL-5 melanoma) was > 6.51 µM. For the same molecule, the GI50 (IGROV1 ovarian) was > 10 µM, the TGI (IGROV1 ovarian) was > 10 µM and the GI50 (LOX IMVI melanoma) was 3.79 µM. The TGI (LOX IMVI melanoma) was > 4.64 µM, the GI50 (OVCAR-5 ovarian) was > 10 µM and the TGI (OVCAR-5 ovarian) was > 10 µM. For the same molecule, the GI50 (SNB-75 CNS) was > 4.28 µM, the TGI (SNB-75 CNS) was > 5.68 µM and the GI50 (OVCAR-4 ovarian) was > 4.36 µM. For the same molecule, the TGI (OVCAR-4 ovarian) was > 6.02 µM, the GI50 (EKVX NSCLC) was > 5.53 µM and the TGI (EKVX NSCLC) was > 6.88 µM. For the same molecule, the GI50 (KM12 colon) was > 10 µM, the TGI (KM12 colon) was > 10 µM and the GI50 (UO-31 renal) was > 8.79 µM. The TGI (UO-31 renal) was > 10 µM, the GI50 (HCT-15 colon) was 4.25 µM and the TGI (HCT-15 colon) was > 4.64 µM. For the same molecule, the GI50 (SF-295 CNS) was > 5.52 µM, the TGI (SF-295 CNS) was > 6.84 µM and the GI50 (SW-620 colon) was > 8.82 µM. For the same molecule, the TGI (SW-620 colon) was > 10 µM, the GI50 (MCF7 breast) was > 10 µM and the TGI (MCF7 breast) was > 10 µM. For the same molecule, the GI50 (NCI-H460 lung) was > 10 µM, the TGI (NCI-H460 lung) was > 10 µM and the GI50 (MDA-MB-231 breast) was > 9.02 µM. For the same molecule, the TGI (MDA-MB-231 breast) was > 10 µM, the GI50 (CAKI-1 renal) was > 10 µM and the TGI (CAKI-1 renal) was > 10 µM. For the same molecule, the GI50 (T-47D breast) was > 10 µM, the TGI (T-47D breast) was > 10 µM and the GI50 (COLO 205 colon) was > 5.6 µM. For the same molecule, the TGI (COLO 205 colon) was > 6.79 µM, the GI50 (HCT-116 colon) was > 9.18 µM and the TGI (HCT-116 colon) was > 10 µM. For the same molecule, the GI50 (NCI/ADR-RES ovarian) was > 10 µM, the TGI (NCI/ADR-RES ovarian) was > 10 µM and the GI50 (CCRF-CEM leukemia) was > 4.58 µM. The TGI (CCRF-CEM leukemia) was > 6.27 µM.
